{"source": "patent US20240209092A1", "about": "“COMBINATION THERAPIES FOR TREATING CANCER” (ADAGENE INC., priority 2021, published 2024)", "key": {"[1]": {"tested_on": "Renca murine kidney cancer cells", "test": "Renca cancer model, TY21580 with Anlotinib", "format": "in vivo, mice", "experimental": "Mice were inoculated subcutaneously with Renca murine kidney cancer cells. […] Anlotinib at 3 mg/kg was p.o. dosed daily for 17 doses."}, "4T1 cancer model": {"tested_on": "4T1 cancer model", "conditions": "Day 35; TY21580 2 mg/kg i.p. biweekly four doses, Docetaxel 10 mg/kg i.v. weekly 3 doses", "procedure": "Dosing started when average tumor volume reached about 90 mm^3 (n=8 per group). When the mean tumor volume reached 90 mm^3, the tumor bearing mice were randomized into different treatment groups of eight mice each. […] Docetaxel at 10 mg/kg was i.v. dosed weekly for 3 doses."}, "[2]": {"tested_on": "4T1 murine breast cancer cells", "test": "4T1 cancer model, TY22404 with ADG106", "format": "in vivo, mice", "conditions": "Day 33; 5 mg/kg TY22404 and/or ADG106 i.p. biweekly, four doses", "experimental": "Mice were inoculated subcutaneously with 4T1 murine breast cancer cells. […] Intraperitoneal administration of Vehicle, 5 mg/kg TY22404 or ADG106, or combination of these two agents, was initiated on a biweekly schedule for four doses."}, "[3]": {"tested_on": "CT26 murine colon tumor cells", "test": "CT26 colon cancer model, ADG106 with TY21580 (FIGS. 12A-12B)", "format": "in vivo, mice", "conditions": "Day 19; ADG106 0.2 mg/kg and/or TY21580 0.2 mg/kg, IP twice a week", "experimental": "FIGS. 12A-12B provide the results of ADG106 administered in combination with TY21580 in the mouse CT26 colon cancer model to assess in vivo antitumor efficacy of ADG106 and TY21580 combination treatment. Mice were inoculated subcutaneously with CT26 murine colon tumor cells. […] These groups received either 1 mg/kg isotype control, 0.2 mg/kg ADG106, 0.2 or 1 mg/kg TY21580, or a combination of ADG106 and TY21580 at the same doses by IP injection. All antibodies were dosed twice a week."}, "[4]": {"tested_on": "MC38 murine colon tumor cells", "test": "MC38 colon cancer model, ADG106 with TY21580 (FIGS. 13A-13B)", "format": "in vivo, mice", "conditions": "Day 33; ADG106 10 mg/kg alone", "experimental": "Mice were inoculated subcutaneously with MC38 murine colon tumor cells. […] These groups received either 10 mg/kg isotype control, 10 mg/kg ADG106, 0.2 or 2 mg/kg TY21580, or a combination of ADG106 and TY21580 at the same doses by IP injection. All antibodies were dosed twice a week for 4 weeks. […] No adverse effects were observed on body weights with these treatments."}, "4T1 breast cancer cells": {"tested_on": "4T1 breast cancer cells", "test": "4T1 breast cancer model, ADG106 with TY21580", "format": "in vivo, BALB/c mice", "conditions": "TY21580 2 mg/kg, ADG106 5 mg/kg, i.p. twice a week for 2 weeks"}, "[5]": {"tested_on": "B16F10 murine melanoma tumor cells", "test": "B16F10 melanoma model, ADG106 with TY21580 (FIG. 17)", "format": "in vivo, mice", "conditions": "5 mg/kg each, IP twice a week from tumor inoculation", "experimental": "All antibodies were dosed twice a week."}, "[6]": {"tested_on": "A20 murine B lymphoma cells", "test": "A20 cancer model, ADG106 with TY21580", "format": "in vivo, mice", "conditions": "ADG106 5 mg/kg, TY21580 0.5 mg/kg, i.p. biweekly, 4 doses", "experimental": "FIGS. 18A-18B provide the results of ADG106 administered in combination with TY21580 in the A20 cancer model to assess in vivo antitumor efficacy of ADG106 and TY21580 combination treatment. Mice were inoculated subcutaneously with A20 murine B lymphoma cells. […] Intraperitoneal administration of 5 mg/kg ADG106 or 0.5 mg/kg TY21580, or combination of these two agents, was initiated on a biweekly schedule for 4 doses."}, "[7]": {"tested_on": "EMT6 murine breast cancer cells", "test": "EMT6 cancer model, ADG106 with TY21580", "format": "in vivo, mice", "conditions": "ADG106 0.5 mg/kg, TY21580 0.1 mg/kg, i.p. biweekly", "experimental": "FIGS. 19A-19B provide the results of ADG106 administered in combination with TY21580 in the EMT6 cancer model to assess in vivo antitumor efficacy of ADG106 and TY21580 combination treatment. Mice were inoculated subcutaneously with EMT6 murine breast cancer cells. […] Intraperitoneal administration of 0.5 mg/kg ADG106 or 0.1 mg/kg TY21580, or combination of these two agents, was initiated on a biweekly schedule."}, "[8]": {"tested_on": "MC38 murine colon tumor cells", "test": "MC38 cancer model, TY22404 with ADG106", "format": "in vivo, mice", "conditions": "Day 27 post tumor cell inoculation; 5 mg/kg each, i.p. biweekly four doses", "experimental": "FIG. 25 provides the results of TY22404 administered in combination with ADG106 antibody in the MC38 cancer model to assess in vivo antitumor efficacy of the combination treatment. Mice were inoculated subcutaneously with MC38 murine colon tumor cells. […] Intraperitoneal administration of test antibodies was initiated on a biweekly schedule for four doses. Tumor growth inhibition (TGI) relative to the isotype control group was evaluated on Day 27 post tumor cell inoculation."}, "[9]": {"tested_on": "EMT6 murine breast cancer cells", "test": "EMT6 cancer model, TY21580 with Olaparib", "format": "in vivo, mice", "conditions": "Olaparib 50 mg/kg p.o. daily for 21 doses", "experimental": "Mice were inoculated subcutaneously with EMT6 murine breast cancer cells. […] Intraperitoneal administration of TY21580 at 0.1 mg/kg was initiated on a biweekly schedule. Olaparib at 50 mg/kg was p.o. dosed daily for 21 doses."}, "CT26 cancer model": {"tested_on": "CT26 cancer model", "test": "CT26 cancer model, TY21580 with Fruquintinib", "format": "in vivo, mice", "experimental": "Dosing started when average tumor volume reached about 120 mm^3 (n=8 per group). […] Fruquintinib at 5 mg/kg was p.o. dosed daily for 3 weeks."}}}
{"molecule": "COc1cc2c(Oc3ccc4[nH]c(C)cc4c3F)ccnc2cc1OCC1(N)CC1", "note": "[Anlotinib]", "values": [{"measurement": "TGI vs vehicle control", "setting": "[1]; Day 29, Anlotinib 3 mg/kg p.o. daily for 17 doses", "result": 93, "unit": "%"}, {"measurement": "antitumor effect vs vehicle control, in words", "setting": "[1]; TY21580 5 mg/kg i.p. biweekly four doses, Anlotinib 3 mg/kg p.o. daily", "result": "strong antitumor activity"}]}
{"molecule": "CC(=O)O[C@@]12CO[C@@H]1C[C@H](O)[C@@]1(C)C(=O)[C@H](O)C3=C(C)[C@@H](OC(=O)[C@H](O)[C@@H](NC(=O)OC(C)(C)C)c4ccccc4)C[C@@](O)([C@@H](OC(=O)c4ccccc4)[C@H]21)C3(C)C", "note": "[Docetaxel, reference compound]", "values": [{"measurement": "TGI vs vehicle control", "setting": "4T1 cancer model", "result": 38.3, "unit": "%"}]}
{"molecule": "ADG106: anti-CD137 antibody, heavy chain SEQ ID NO: 240, light chain SEQ ID NO: 241", "values": [{"measurement": "TGI vs vehicle control", "setting": "[2]", "result": 10, "unit": "%"}, {"measurement": "TGI vs isotype control", "setting": "[3]", "result": 47, "unit": "%"}, {"measurement": "tumor growth inhibition, in words", "setting": "[4]", "result": "did not inhibit tumor growth"}, {"measurement": "anti-tumor activity vs isotype control, in words", "setting": "4T1 breast cancer cells", "result": "showed anti-tumor activity"}, {"measurement": "antitumor activity vs isotype control, in words", "setting": "[5]", "result": "did not inhibit tumor growth"}, {"measurement": "antitumor activity vs vehicle control, in words", "setting": "[6]", "result": "partial antitumor activity"}, {"measurement": "antitumor activity vs vehicle control, in words", "setting": "[7]", "result": "significant antitumor activity"}, {"measurement": "Tumor growth inhibition (TGI) relative to isotype control", "setting": "[8]", "result": 21, "unit": "%"}]}
{"molecule": "O=C(c1cc(Cc2n[nH]c(=O)c3ccccc23)ccc1F)N1CCN(C(=O)C2CC2)CC1", "note": "[Olaparib, reference compound]", "values": [{"measurement": "antitumor effect vs vehicle control, in words", "setting": "[9]", "result": "no significant antitumor effect"}]}
{"molecule": "CNC(=O)c1c(C)oc2cc(Oc3ncnc4cc(OC)c(OC)cc34)ccc12", "note": "[Fruquintinib, reference compound]", "values": [{"measurement": "antitumor activity vs isotype control, in words", "setting": "CT26 cancer model; TY21580 0.1 mg/kg i.p. biweekly four doses, Fruquintinib 5 mg/kg p.o. daily for 3 weeks", "result": "partial antitumor activity"}, {"measurement": "complete response (CR)", "setting": "CT26 cancer model; TY21580 0.1 mg/kg, Fruquintinib 5 mg/kg, n=8 per group", "result": "no complete response"}]}
